Data taken from PMC10339607, “Screening and identification of emodin as an EBV DNase inhibitor to prevent its biological functions” (Virology Journal, 2023).

Target: T1, EBV DNase (BGLF5) (Epstein-barr virus strain ag876, UniProt Q1HVE7)
T1 construct: full-length wild-type, 470 amino acids; pET-15b His-tag; E. coli BL21(DE3) pLysS
Assay: PicoGreen fluorescence nuclease activity assay
Type: biochemical

T1 sequence (Q1HVE7 whole entry): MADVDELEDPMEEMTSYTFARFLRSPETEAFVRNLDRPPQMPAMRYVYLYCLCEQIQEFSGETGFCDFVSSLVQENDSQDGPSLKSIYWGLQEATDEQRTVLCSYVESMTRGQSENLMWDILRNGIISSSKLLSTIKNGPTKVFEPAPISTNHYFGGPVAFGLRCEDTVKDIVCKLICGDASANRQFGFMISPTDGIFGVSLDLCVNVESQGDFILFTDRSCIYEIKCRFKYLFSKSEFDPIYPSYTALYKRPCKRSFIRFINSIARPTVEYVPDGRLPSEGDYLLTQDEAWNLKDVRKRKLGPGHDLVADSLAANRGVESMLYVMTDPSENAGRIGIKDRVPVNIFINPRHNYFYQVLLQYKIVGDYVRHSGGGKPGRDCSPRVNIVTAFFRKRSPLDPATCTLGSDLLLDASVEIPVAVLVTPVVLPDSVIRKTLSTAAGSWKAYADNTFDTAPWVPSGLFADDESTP

| Structure (SMILES) | IC50 |
| --- | --- |
| Cc1cc(O)c2c(c1)C(=O)c1cc(O)cc(O)c1C2=O [emodin] | 31 µM |
| C=CCSSCC=C [diallyl disulfide] | > 100 µM |
| O=c1c(O)c(-c2ccc(O)cc2)oc2cc(O)cc(O)c12 [Kaempferol] | 69 µM |
| O=C(O[C@@H]1Cc2c(O)cc(O)cc2O[C@@H]1c1cc(O)c(O)c(O)c1)c1cc(O)c(O)c(O)c1 [epigallocatechin gallate] | 89 µM |
| C[S@@+]([O-])CCCCN=C=S [sulforaphane] | > 100 µM |
